Experimental data as given in the supplement of paper PMC11061612.

Assays:
Assay in all cases: Bliss excess, mean over the matrix (fraction); higher = more synergy
[1] = test system: HO-1-N-1 (Oral Cavity Carcinoma)
In short: (§1)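 Cell lines in DMEM/F12 or RPMI with 10% FBS were plated in 1536-well plates, held 24 hours at 37°C, 5% CO2, then given two-drug dose matrices for 72 hours (DMSO typically 0.2%). Viability was read by CellTiter-Glo 2.0 luminescence and scaled as inhibition from 0 (vehicle wells) to 1 (blank wells). Combination Emax is the second-highest inhibition in the matrix; Bliss excess is observed combination effect minus expected EA + EB − EA·EB, EA and EB being single-agent effects.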

[2] = test system: KP-1N (Pancreatic Carcinoma)
In short: as §1

[3] = test system: LNCaP-Clone-FGC (Prostate Carcinoma)
In short: as §1

AGS (Gastric Carcinoma) = test system: AGS (Gastric Carcinoma)
In short: as §1

[4] = test system: TCCSUP (Bladder Carcinoma)
In short: as §1

[5] = test system: TE-15 (Esophageal Squamous Cell Carcinoma)
In short: as §1

[6] = test system: RO82-W-1 (Thyroid Gland Carcinoma)
In short: as §1

[7] = test system: NCI-H2085 (Non-Small Cell Lung Carcinoma)
In short: as §1

[8] = test system: LU-135 (Small Cell Lung Carcinoma)
In short: as §1

[9] = test system: CAL-148 (Breast Carcinoma)
In short: as §1

NOS-1 (Osteosarcoma) = test system: NOS-1 (Osteosarcoma)
In short: as §1

[10] = test system: SK-ES-1 (Ewing's Sarcoma)
In short: as §1

Structure (SMILES) | Bliss excess [1] | Bliss excess [2] | Bliss excess [3] | Bliss excess (AGS (Gastric Carcinoma)) | Bliss excess [4] | Bliss excess [5] | Bliss excess [6] | Bliss excess [7] | Bliss excess [8] | Bliss excess [9] | Bliss excess (NOS-1 (Osteosarcoma)) | Bliss excess [10]
CN(CCO)CC[C@H](CSc1ccccc1)Nc1ccc(S(=O)(=O)NC(=O)c2ccc(N3CCC([C@@H](O)c4ccccc4-c4ccc(Cl)cc4)CC3)cc2)cc1S(=O)(=O)C(F)(F)F [AZD4320] + C[C@@H](Nc1cc(F)cc(F)c1)c1cc(C(=O)N(C)C)cc2c(=O)cc(N3CCOCC3)oc12 [AZD8186] (first compound max 1 µM, 7x7, partner max 3 µM) | 0.0421 | 0.0059 | -0.0005 | 0.018 | -0.0348 | -0.0335 | -0.0581 | -0.0231 | 0.0404 | -0.0054 | -0.0096 | 0.0521
CN(CCO)CC[C@H](CSc1ccccc1)Nc1ccc(S(=O)(=O)NC(=O)c2ccc(N3CCC([C@@H](O)c4ccccc4-c4ccc(Cl)cc4)CC3)cc2)cc1S(=O)(=O)C(F)(F)F [AZD4320] + Cc1cc2ncnn2cc1Nc1ncc2c(n1)n(C1CCOCC1)c(=O)n2C [AZD7648] (first compound max 1 µM, 7x7, partner max 10 µM) | -0.0407 | -0.0588 | -0.0622 | -0.0298 | -0.0325 | -0.046 | -0.0613 | -0.0399 | 0.0109 | -0.0011 | 0.0375 | 0.0809
CN(CCO)CC[C@H](CSc1ccccc1)Nc1ccc(S(=O)(=O)NC(=O)c2ccc(N3CCC([C@@H](O)c4ccccc4-c4ccc(Cl)cc4)CC3)cc2)cc1S(=O)(=O)C(F)(F)F [AZD4320] + Cn1cnc2c(F)c(Nc3ccc(Br)cc3Cl)c(C(=O)NOCCO)cc21 [Selumetinib] (first compound max 1 µM, 7x7, partner max 3 µM) | -0.0533 | -0.0277 | 0.0009 | 0.181 | 0.0157 | -0.0391 | -0.0139 | 0.032 | 0.0266 | -0.0201 | 0.0796 | -0.0095
COc1nnc2ccc(N3CCC(c4ccc(OCCN5CCN(C)C(=O)[C@H]5C)cc4)CC3)nn12 [AZD5153] + C=CCn1c(=O)c2cnc(Nc3ccc(N4CCN(C)CC4)cc3)nc2n1-c1cccc(C(C)(C)O)n1 [AZD1775] (first compound max 1 µM, partner max 1 µM) | -0.0551 | 0.0464 | -0.0733 | -0.0294 | -0.0497 | -0.001 | 0.038 | -0.0223 | -0.004 | -0.0117 | -0.0371 | -0.0279
COc1nnc2ccc(N3CCC(c4ccc(OCCN5CCN(C)C(=O)[C@H]5C)cc4)CC3)nn12 [AZD5153] + CC1(C)CCC(CN2CCN(c3ccc(C(=O)NS(=O)(=O)c4ccc(NCC5CCOCC5)c([N+](=O)[O-])c4)c(Oc4cnc5[nH]ccc5c4)c3)CC2)=C(c2ccc(Cl)cc2)C1 [Venetoclax] (first compound max 1 µM, 7x7, partner max 1 µM) | -0.095 | -0.0714 | -0.0468 | -0.0619 | -0.0768 | -0.0698 | -0.0712 | -0.0655 | -0.001 | -0.0682 | -0.0078 | -0.0092
COc1nnc2ccc(N3CCC(c4ccc(OCCN5CCN(C)C(=O)[C@H]5C)cc4)CC3)nn12 [AZD5153] + CCN(CCO)CCCOc1ccc2c(Nc3cc(CC(=O)Nc4cccc(F)c4)[nH]n3)ncnc2c1 [AZD2811] (first compound max 1 µM, 7x7, partner max 1 µM) | -0.0014 | -0.0273 | -0.0081 | 0.0294 | -0.0398 | -0.0535 | -0.0483 | -0.0594 | -0.0449 | -0.0361 | -0.0391 | -0.0695
COc1nnc2ccc(N3CCC(c4ccc(OCCN5CCN(C)C(=O)[C@H]5C)cc4)CC3)nn12 [AZD5153] + C[C@@H]1COCCN1C2=NC(=NC(=C2)C3(CC3)[S@](=N)(=O)C)C4=C5C=CNC5=NC=C4 [AZD6738] (first compound max 1 µM, 7x7, partner max 10 µM) | 0.01 | 0.131 | -0.0318 | 0.0381 | -0.0327 | -0.0096 | 0.0259 | 0.0107 | 0.0397 | 0.0315 | 0.0006 | 0.0023
COc1nnc2ccc(N3CCC(c4ccc(OCCN5CCN(C)C(=O)[C@H]5C)cc4)CC3)nn12 [AZD5153] + Cc1c2c(nn1C)CSCc1cc(n(C)n1)CSc1cc(c3ccccc3c1)OCCCc1c(C(=O)O)n(C)c3c-2c(Cl)ccc13 [AZD5991] (first compound max 1 µM, 7x7, partner max 1 µM) | 0.0068 | -0.0176 | -0.0722 | -0.0166 | -0.0234 | -0.0124 | -0.0181 | -0.0081 | 0.0517 | 0.0117 | 0.0399 | 0.0048
COc1nnc2ccc(N3CCC(c4ccc(OCCN5CCN(C)C(=O)[C@H]5C)cc4)CC3)nn12 [AZD5153] + Cn1cnc2c(F)c(Nc3ccc(Br)cc3Cl)c(C(=O)NOCCO)cc21 [Selumetinib] (first compound max 1 µM, 7x7, partner max 10 µM) | 0.0226 | -0.0417 | -0.0583 | 0.0163 | -0.0264 | 0.0225 | 0.038 | 0.027 | -0.0138 | 0.0129 | 0.066 | -0.0188
